Experimental data from doi:10.1101/520460v1, “Chromokinesins NOD and KID Use Distinct ATPase Mechanisms and Microtubule Interactions to Perform a Similar Function” (biorxiv, 2019).

Target: T1, KID (Homo sapiens, UniProt Q14807)
T1 construct: gene KIF22; Glu-C V8 protease added in crystallization
T1 sequence (Q14807 40-400): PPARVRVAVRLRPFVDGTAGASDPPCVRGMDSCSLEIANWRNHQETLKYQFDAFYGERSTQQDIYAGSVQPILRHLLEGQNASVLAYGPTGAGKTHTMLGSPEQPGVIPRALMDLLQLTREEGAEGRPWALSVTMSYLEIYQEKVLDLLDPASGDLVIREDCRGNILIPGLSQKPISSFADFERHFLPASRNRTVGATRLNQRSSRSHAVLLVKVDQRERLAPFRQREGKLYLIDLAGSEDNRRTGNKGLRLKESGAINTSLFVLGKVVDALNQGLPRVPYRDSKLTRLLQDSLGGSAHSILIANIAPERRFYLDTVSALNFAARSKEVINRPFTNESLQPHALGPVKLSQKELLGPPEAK
Assay: X-ray crystal structure of the complex
Format: binding
Conditions: crystals from 3.2 M NaCl, 0.1 M Tris pH 8.5, 291 K, 5 molar fold MgADP

Nc1ncnc2c1ncn2[C@@H]1O[C@H](COP(=O)(O)OP(=O)(O)O)[C@@H](O)[C@H]1O [ADP]
X-ray crystal structure of the complex: We solved the X-ray crystal structure of the KID catalytic domain in the ADP state
